Measured values from PMC9056410, “14-Residue peptaibol velutibol A from Trichoderma velutinum: its structural and cytotoxic evaluation” (RSC Advances, 2020).
Converted amounts (≈) assume the structure as drawn. Read-outs that look alike come from different tables or passages of the source. Where a SMILES comes first, the peptide text is derived from it. [ ]: non-standard residue; d: D form. Leu(ol) = CC(C)C[C@H](N)CO; Aib = CC(C)(N)C(=O)O

Tests used:
[1] = system: human breast cancer (MDA-MB-231); assay: cells; type: cell-based; settings: MTT, mean ± SD of three experiments, read-out: IC50 ± standard deviation
Procedure: (§1) The cytotoxicity testing of compound 1 was performed against various cell lines, which includes human lung cancer (A549), human colon cancer (LS-180), human myeloid leukemia (HL-60) and human breast cancer (MDA-MB-231) using MTT (3-(4,5-dimethylthiazole-2-yl)-2,5-diphenyltetrazolium bromide). Herein, paclitaxel was used as positive control for cytotoxic assay. […] Further, the cell-cycle assay was performed on HL-60 cell lines. The compound 1 was treated against HL-60 cells at concentrations 5, 10, 20 and 30 μM and incubated for 24 h. […] Apoptotic bodies are small DNA fragments wrapped around the single membrane vesicles mainly formed when cells undergo apoptosis. These apoptotic bodies can be visualized under a fluorescent microscope by using DNA staining dyes such as 4′,6-diamidino-2-phenylindole (DAPI). The HL-60 cells were incubated with the compound 1 at different concentrations (5, 10, 20 and 30 μM) for 24 h. […] The % apoptosis is also represented graphically in Fig. 7.
(§2) The cytotoxic effect of compound 1 on cancer cells was assayed by using MTT dye. The HL-60 cell lines were seeded for 4 h in round bottom 96 well plates. It was then treated with different concentrations of compound 1 dissolved in DMSO and incubated for 48 h. With 3 h earlier to experiment termination, the MTT dye (20 μL) from the stock solution of 2.5 mg mL^−1 was added to each well. The MTT-formazan crystals thus formed were dissolved in DMSO (160 μL) and observed at 570 nm. The untreated control culture was treated with DMSO (<0.2%).

[2] = system: human colon cancer (LS-180); assay: cells; type: cell-based; settings: mean ± SD of three experiments, read-out: IC50 ± standard deviation
Procedure: as §1, §2

human lung cancer (A549) = assay: cells; type: cell-based; settings: MTT, mean ± SD of three experiments, read-out: IC50 ± standard deviation
Procedure: as §1, §2

[3] = system: human myeloid leukemia (HL-60); assay: cells; type: cell-based; settings: MTT, mean ± SD of three experiments, read-out: IC50 ± standard deviation
Procedure: as §1, §2

M. tuberculosis H37Rv [4] = assay: microbe, parasite or virus in culture; settings: Mycobacterium tuberculosis, read-out: Minimum Inhibitory Concentration (MIC)
HL-60 cells [5] = assay: Cell cycle analysis, propidium iodide staining, flow cytometry; type: cell-based, human; settings: 24 h, PI staining
Procedure: as §1
The cell cycle phase distribution analysis in HL-60 cells was carried out by propidium iodide (PI) staining. The HL-60 cells were treated with different concentration (5, 10, 20 and 30 μM) of 1. After 24 h, the cells were centrifuged and collected at 400 × g and washed two times with PBS followed by fixing with ice-cold ethanol (70%). It was incubated overnight at 4 °C. Next day, cells were centrifuged at 4000 rpm, collected and washed with PBS followed by incubation with RNase (0.2 mg mL^−1) for 90 min at 37 °C. It was then stained with PI (10 μg mL^−1) and kept for 30 min in dark. The analysis of cells were carried out through flow-cytometer (FACS Calibur, Becton Dickinson) using list mode on 10 000 events for FL2-A vs. FL2-W. The ModFit software was used for the calculation of fluorescence intensity of the sub-G1 cell fraction representing the apoptotic cell population.

HL-60 cells [6] = assay: Nuclear morphology, DAPI staining, fluorescence microscopy; type: cell-based, human; settings: HL-60, 5, 10, 20 and 30 μM, 24 h
Procedure: as §1
HL-60 cells were incubated with compound 1 in a 12 well plate. After 24 h, cells were centrifuged at 400 × g, collected and washed two times with PBS. The cells were fixed using 1 mL solution of cold acetic acid in methanol (1 : 3) and incubated overnight at 4 °C. Further, the cells were centrifuged at 400 × g, collected and re-suspended in fixing solution (100 μL). […]

M. tuberculosis H37Rv [7] = settings: 48 h
[8] = 48 h incubation, read at 570 nm

CC(=O)O[C@H]1C(=O)[C@@]2(C)[C@H]([C@H](OC(=O)c3ccccc3)[C@]3(O)C[C@H](OC(=O)[C@H](O)[C@@H](NC(=O)c4ccccc4)c4ccccc4)C(C)=C1C3(C)C)[C@]1(OC(C)=O)CO[C@@H]1C[C@@H]2O [Paclitaxel, paclitaxel, reference compound]
IC50 ([1]; Homo sapiens, positive control): 0.0033 ± 0.0001 µM
IC50 ([2]; Homo sapiens, LS180, MTT, positive control): 0.0022 ± 0.0001 µM
IC50 (human lung cancer (A549); Homo sapiens, positive control): 0.0062 ± 0.0001 µM
IC50 ([3]; Homo sapiens, positive control): 0.0018 ± 0.0001 µM

CO[C@H]1/C=C/O[C@@]2(C)Oc3c(C)c(O)c4c(O)c(c(/C=N/N5CCN(C)CC5)c(O)c4c3C2=O)NC(=O)/C(C)=C\C=C\[C@H](C)[C@H](O)[C@@H](C)[C@@H](O)[C@@H](C)[C@H](OC(C)=O)[C@@H]1C [Rifampicin]
MIC (M. tuberculosis H37Rv [4]): 0.06 µg/mL (≈ 0.0729 µM)

CC(=O)NC(C)(C)C(=O)N[C@@H](CCC(N)=O)C(=O)N[C@@H](CC(C)C)C(=O)NC(C)(C)C(=O)N1CCC[C@H]1C(=O)N[C@H](C(=O)N[C@@H](CC(C)C)C(=O)NC(C)(C)C(=O)N1CCC[C@H]1C(=O)NC(C)(C)C(=O)NC(C)(C)C(=O)NC(C)(C)C(=O)N1CCC[C@H]1C(=O)N[C@H](CO)CC(C)C)C(C)C [compound 1, Velutibol A] (Ac-[Aib]QL[Aib]PVL[Aib]P[Aib][Aib][Aib]P[Leu(ol)])
IC50 [1, 8]: 7 ± 0.2 µM
IC50 ([2]; MTT, 48 h incubation, read at 570 nm): 26 ± 1.1 µM
IC50 (human lung cancer (A549); [8]): 23 ± 0.8 µM
IC50 [3, 8]: 4 ± 0.1 µM
Apop (apoptotic DNA population, sub-G1) (HL-60 cells [5]; HL-60, 10 μM): 70%
Apop (apoptotic DNA population, sub-G1) (HL-60 cells [5]; HL-60, 20 μM): 85%
Apop (apoptotic DNA population, sub-G1) (HL-60 cells [5]; HL-60, 30 μM): 99%
Formation of apoptotic bodies (HL-60 cells [6]): increased in a dose-dependent manner
Minimum Inhibitory Concentration (MIC) (M. tuberculosis H37Rv [7]): 32 µg/mL
